Test results reported in the supplement of paper PMC10307832.

Legend:
Test in all cases: relative viability (nuclei count vs DMSO), 5 days (fraction); higher = more cells survive
[1] = compound: C1=CC(=CC=C1C2=CC(=C(S2)NC(=O)N)C(=O)N)F [TPCA-1] + CC(=O)Nc1cccc(-n2c(=O)n(C3CC3)c(=O)c3c(Nc4ccc(I)cc4F)n(C)c(=O)c(C)c32)c1 [Trametinib] (partner 0.02 µM)
Procedure, shortened: (§1)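 Relative viability divides the nuclei count in treated wells by that in vehicle wells. Lung cancer cell lines were seeded in 1536-well plates, dosed by pin tool the next day, and fixed and stained after 5 days in one step with final 0.05% Triton X-100, 1% formaldehyde and 1 ug/ml Hoechst. Dosing was a single drug or a fixed anchor-drug dose plus five library-drug doses (not always all listed) in √10 steps, and values are medians of duplicate plates imaged at 4×.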

[2] = compound: C1=CC(=CC=C1C2=CC(=C(S2)NC(=O)N)C(=O)N)F [TPCA-1] + Nc1nc2[nH]cc(CCc3ccc(C(=O)N[C@@H](CCC(=O)O)C(=O)O)cc3)c2c(=O)[nH]1 [Pemetrexed] (partner 0.2 µM)
Procedure, shortened: as §1

[3] = compound: C[C@]12O[C@H](C[C@]1(O)CO)n1c3ccccc3c3c4c(c5c6ccccc6n2c5c31)CNC4=O [Lestaurtinib] + Cc1nc(Nc2ncc(C(=O)Nc3c(C)cccc3Cl)s2)cc(N2CCN(CCO)CC2)n1 [Dasatinib] (partner 0.075 µM)
Procedure, shortened: as §1

[4] = compound: C1/C(=C\C2=CC=CS2)/C(=O)/C(=C/C3=CC=CS3)/C1 + Cc1cc(Nc2cc(N3CCN(C)CC3)nc(Sc3ccc(NC(=O)C4CC4)cc3)n2)n[nH]1 [Tozasertib] (partner 0.1 µM)
Procedure, shortened: as §1

Row | Cell Line | relative viability ([1]; first compound 0.04 µM) | relative viability ([1]; first compound 0.1265 µM) | relative viability ([1]; first compound 0.4 µM) | relative viability ([1]; first compound 1.265 µM) | relative viability ([1]; first compound 4 µM) | relative viability ([2]; first compound 0.04 µM) | relative viability ([2]; first compound 0.1265 µM) | relative viability ([2]; first compound 0.4 µM) | relative viability ([2]; first compound 1.265 µM) | relative viability ([2]; first compound 4 µM) | relative viability ([3]; first compound 0.005 µM) | relative viability ([3]; first compound 0.01581 µM) | relative viability ([3]; first compound 0.05 µM) | relative viability ([3]; first compound 0.1581 µM) | relative viability ([3]; first compound 0.5 µM) | relative viability ([4]; first compound 0.2 µM) | relative viability ([4]; first compound 0.6325 µM) | relative viability ([4]; first compound 2 µM) | relative viability ([4]; first compound 6.325 µM) | relative viability ([4]; first compound 20 µM)
1 | NCI-H441 | 0.402 | 0.405 | 0.422 | 0.459 | 0.266 | 0.247 | 0.257 | 0.258 | 0.24 | 0.242 | 0.521 | 0.58 | 0.431 | 0.548 | 0.482 | 0.657 | 0.614 | 0.613 | 0.631 | 0.528
2 | NCI-H460 | 0.172 | 0.161 |  | 0.145 | 0.154 | 0.0613 | 0.0689 |  | 0.0518 | 0.0585 | 0.505 | 0.583 | 0.505 | 0.388 | 0.247 | 0.377 | 0.438 | 0.401 | 0.323 | 0.321
3 | NCI-H520 | 0.773 | 0.69 | 0.75 | 0.674 | 0.278 | 0.779 | 0.727 | 0.737 | 0.578 | 0.608 | 0.209 | 0.203 | 0.164 | 0.169 | 0.159 | 0.531 | 0.506 | 0.458 | 0.398 | 0.406
4 | NCI-H522 | 0.872 | 0.737 | 0.901 | 0.766 | 0.6 | 1.21 | 0.765 | 1.15 | 1.14 | 0.975 | 0.798 | 0.807 | 0.934 | 0.821 | 0.493 | 0.6 | 0.506 | 0.523 | 0.549 | 0.583
5 | NCI-H596 | 0.801 | 0.78 | 0.74 | 0.884 | 0.658 | 0.53 | 0.516 | 0.532 | 0.509 | 0.412 | 0.669 | 0.6 | 0.678 | 0.694 | 0.564 | 0.726 | 0.865 | 1.11 | 0.855 | 0.995
6 | NCI-H647 | 0.553 | 0.444 | 0.47 | 0.382 | 0.277 | 0.177 | 0.172 | 0.183 | 0.163 | 0.182 | 0.278 | 0.147 | 0.0914 | 0.0755 | 0.0624 | 0.382 | 0.379 | 0.296 | 0.271 | 0.238
7 | NCI-H650 | 1.08 | 0.857 | 0.948 | 0.862 | 0.813 | 0.952 | 0.916 | 0.994 | 0.631 | 0.809 | 0.405 | 0.397 | 0.301 | 0.315 | 0.232 | 0.857 | 0.716 | 0.675 | 0.689 | 0.786
8 | NCI-H661 | 0.67 | 0.541 | 0.535 | 0.573 | 0.377 | 0.931 | 0.906 | 0.931 | 0.851 | 0.97 | 0.99 | 0.953 | 0.851 | 0.81 | 0.319 | 0.324 | 0.361 | 0.374 | 0.308 | 0.36
9 | NCI-H838 | 0.599 | 0.457 | 0.533 | 0.336 | 0.406 | 0.25 | 0.225 | 0.259 | 0.264 | 0.294 | 0.281 | 0.296 | 0.264 | 0.286 | 0.216 | 0.295 | 0.264 | 0.321 | 0.216 | 0.231
10 | NCI-H1355 | 0.494 | 0.384 | 0.406 | 0.381 | 0.41 | 1.06 | 1 | 1.01 | 0.945 | 0.878 | 0.639 | 0.777 | 0.58 | 0.495 | 0.259 | 0.565 | 0.577 | 0.603 | 0.562 | 0.48
11 | NCI-H1395 | 1.23 | 0.939 | 1.11 | 1.05 | 0.884 | 0.857 | 0.859 | 1.06 | 0.847 | 0.629 | 0.423 | 0.402 | 0.398 | 0.373 | 0.363 | 0.767 | 0.879 | 0.91 | 0.686 | 0.754
12 | NCI-H1437 | 0.581 | 0.493 | 0.521 | 0.511 | 0.453 | 0.318 | 0.326 | 0.318 | 0.302 | 0.298 | 0.442 | 0.475 | 0.331 | 0.382 | 0.265 | 0.408 | 0.413 | 0.452 | 0.273 | 0.407
13 | NCI-H1650 | 0.662 | 0.545 | 0.602 | 0.565 | 0.655 | 0.382 | 0.369 | 0.424 | 0.358 | 0.365 | 0.263 | 0.345 | 0.391 | 0.387 | 0.144 | 0.492 | 0.445 | 0.395 | 0.435 | 0.343
14 | NCI-H1651 | 0.894 | 0.799 | 0.838 | 0.824 | 0.787 | 0.601 | 0.538 | 0.532 | 0.527 | 0.338 | 0.395 | 0.557 | 0.393 | 0.443 | 0.248 | 0.731 | 0.671 | 0.837 | 0.596 | 0.718
15 | NCI-H1666 | 0.838 | 0.7 | 0.879 | 0.804 | 0.787 | 1.02 | 0.818 | 0.842 | 0.82 | 0.93 | 1.13 | 0.922 | 0.924 | 0.747 | 0.649 | 0.574 | 0.658 | 0.609 | 0.538 | 0.538
16 | NCI-H1734 | 0.754 | 0.598 | 0.7 | 0.644 | 0.628 | 0.41 | 0.413 | 0.41 | 0.48 | 0.362 | 0.48 | 0.518 | 0.42 | 0.263 | 0.143 | 0.282 | 0.293 | 0.263 | 0.167 | 0.287
17 | NCI-H1755 | 0.846 | 0.716 | 0.72 | 0.714 | 0.591 | 0.448 | 0.437 | 0.459 | 0.379 | 0.444 | 0.439 | 0.424 | 0.293 | 0.288 | 0.208 | 0.64 | 0.583 | 0.582 | 0.539 | 0.549
18 | NCI-H1793 | 0.466 | 0.473 | 0.4 | 0.451 | 0.384 | 0.97 | 0.709 | 0.921 | 0.963 | 0.249 | 0.431 | 0.392 | 0.316 | 0.361 | 0.271 | 0.394 | 0.297 | 0.347 | 0.338 | 0.258
19 | NCI-H1915 | 0.343 | 0.272 | 0.286 | 0.279 | 0.263 | 0.532 | 0.507 | 0.509 | 0.46 | 0.371 | 0.37 | 0.272 | 0.243 | 0.236 | 0.191 | 0.428 | 0.456 | 0.447 | 0.422 | 0.446
20 | NCI-H1944 | 0.423 | 0.373 | 0.426 | 0.355 | 0.294 | 0.631 | 0.466 | 0.705 | 0.589 | 0.487 | 0.207 | 0.23 | 0.176 | 0.137 | 0.147 | 0.282 | 0.248 | 0.259 | 0.241 | 0.236
21 | NCI-H1975 | 0.358 | 0.365 | 0.392 | 0.43 | 0.147 | 0.305 | 0.297 | 0.3 | 0.298 | 0.286 | 0.479 | 0.396 | 0.373 | 0.328 | 0.257 | 0.71 | 0.742 |  | 0.678 | 0.699
22 | NCI-H1993 | 0.545 | 0.563 | 0.563 | 0.423 | 0.425 | 0.613 | 0.547 | 0.564 | 0.628 | 0.503 | 0.565 | 0.32 | 0.504 | 0.495 | 0.468 | 0.567 | 0.556 | 0.594 | 0.559 | 0.506
23 | NCI-H2009 | 0.309 | 0.249 | 0.303 | 0.321 | 0.211 | 1.07 | 0.979 | 1 | 1.11 | 0.99 | 0.257 | 0.227 | 0.2 | 0.211 | 0.118 | 0.764 | 0.814 | 0.752 | 0.657 | 0.81
24 | NCI-H2023 | 0.588 | 0.352 | 0.556 | 0.487 | 0.426 | 0.2 | 0.282 | 0.254 | 0.222 | 0.202 | 0.674 | 0.586 | 0.422 | 0.473 | 0.159 | 0.428 | 0.507 | 0.397 | 0.346 | 0.259
25 | NCI-H2085 |  | 0.613 | 0.655 | 0.532 | 0.514 |  | 0.864 | 0.918 | 0.872 | 0.634 | 0.236 | 0.265 | 0.3 | 0.335 | 0.496 | 0.867 | 0.898 | 0.792 | 0.799 | 0.718
26 | NCI-H2087 | 0.201 | 0.163 | 0.231 | 0.152 | 0.139 | 0.615 | 0.472 | 0.646 | 0.651 | 0.539 | 0.843 | 0.81 | 0.494 | 0.724 | 0.319 | 0.404 | 0.257 | 0.257 | 0.201 | 0.225
27 | NCI-H2126 | 0.534 | 0.528 | 0.58 | 0.538 | 0.555 | 0.636 | 0.607 | 0.679 | 0.508 | 0.524 | 0.678 | 0.759 | 0.59 | 0.624 | 0.463 | 0.888 | 0.831 | 0.878 | 0.814 | 0.798
